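Assay format: 96-well plates, 48-hour exposure. The concentration for 50% growth inhibition is given as GI50. TGI: total growth inhibition.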
Assays:
Assay in all cases: growth of human tumour cells (NCI), 48 h
NCI-H522 lung = tested on: NCI-H522 lung
CCRF-CEM leukemia = tested on: CCRF-CEM leukemia
MOLT-4 leukemia = tested on: MOLT-4 leukemia
HS 578T breast = tested on: HS 578T breast
SF-539 CNS = tested on: SF-539 CNS
LOX IMVI melanoma = tested on: LOX IMVI melanoma
BT-549 breast = tested on: BT-549 breast
OVCAR-4 ovarian = tested on: OVCAR-4 ovarian
SF-268 CNS = tested on: SF-268 CNS
KM12 colon = tested on: KM12 colon
RPMI-8226 leukemia = tested on: RPMI-8226 leukemia
SN12C renal = tested on: SN12C renal
HCT-116 colon = tested on: HCT-116 colon
SK-MEL-28 melanoma = tested on: SK-MEL-28 melanoma
CAKI-1 renal = tested on: CAKI-1 renal
NCI-H226 lung = tested on: NCI-H226 lung
NCI/ADR-RES ovarian = tested on: NCI/ADR-RES ovarian
SR leukemia = tested on: SR leukemia
NCI-H23 lung = tested on: NCI-H23 lung
SK-MEL-5 melanoma = tested on: SK-MEL-5 melanoma
UACC-257 melanoma = tested on: UACC-257 melanoma
HCT-15 colon = tested on: HCT-15 colon
A549 NSCLC = tested on: A549 NSCLC
SK-OV-3 ovarian = tested on: SK-OV-3 ovarian
PC-3 prostate = tested on: PC-3 prostate
MDA-MB-435 = tested on: MDA-MB-435
IGROV1 ovarian = tested on: IGROV1 ovarian
OVCAR-3 ovarian = tested on: OVCAR-3 ovarian
NCI-H460 lung = tested on: NCI-H460 lung
SW-620 colon = tested on: SW-620 colon
SNB-19 CNS = tested on: SNB-19 CNS
HT29 colon = tested on: HT29 colon
SNB-75 CNS = tested on: SNB-75 CNS
U251 CNS = tested on: U251 CNS
OVCAR-5 ovarian = tested on: OVCAR-5 ovarian
786-0 renal = tested on: 786-0 renal
RXF 393 renal = tested on: RXF 393 renal
SF-295 CNS = tested on: SF-295 CNS
EKVX NSCLC = tested on: EKVX NSCLC
HOP-92 NSCLC = tested on: HOP-92 NSCLC
HOP-62 NSCLC = tested on: HOP-62 NSCLC
T-47D breast = tested on: T-47D breast
UACC-62 melanoma = tested on: UACC-62 melanoma
SK-MEL-2 melanoma = tested on: SK-MEL-2 melanoma
MCF7 breast = tested on: MCF7 breast
A498 renal = tested on: A498 renal
DU-145 prostate = tested on: DU-145 prostate
ACHN renal = tested on: ACHN renal
HL-60(TB) leukemia = tested on: HL-60(TB) leukemia
M14 melanoma = tested on: M14 melanoma
TK-10 renal = tested on: TK-10 renal
UO-31 renal = tested on: UO-31 renal
HCC-2998 colon = tested on: HCC-2998 colon
COLO 205 colon = tested on: COLO 205 colon
MDA-MB-231 breast = tested on: MDA-MB-231 breast
K-562 leukemia = tested on: K-562 leukemia

## CN(C)CCOc1nc2c3cccnc3cc(-c3cccc(Cl)c3)c2c2ncccc12
NCI-H522 lung
  GI50: 1470 nM
  TGI: 3060 nM
CCRF-CEM leukemia
  GI50: 1260 nM
  TGI: 6730 nM
MOLT-4 leukemia
  GI50: 488 nM
  TGI: 2410 nM
HS 578T breast
  GI50: 1970 nM
  TGI: 5060 nM
SF-539 CNS
  GI50: 1650 nM
  TGI: 3080 nM
LOX IMVI melanoma
  GI50: 968 nM
  TGI: 4500 nM
BT-549 breast
  GI50: 6110 nM
  TGI: 19900 nM
OVCAR-4 ovarian
  GI50: 1300 nM
  TGI: 3190 nM
SF-268 CNS
  GI50: 1170 nM
  TGI: 4370 nM
KM12 colon
  GI50: 1390 nM
  TGI: 3030 nM
RPMI-8226 leukemia
  GI50: 2340 nM
  TGI: 6240 nM
SN12C renal
  GI50: 1510 nM
  TGI: 7030 nM
HCT-116 colon
  GI50: 1060 nM
  TGI: 2320 nM
SK-MEL-28 melanoma
  GI50: 1650 nM
  TGI: 3070 nM
CAKI-1 renal
  GI50: 1100 nM
  TGI: 2920 nM
NCI-H226 lung
  GI50: 6090 nM
  TGI: 24600 nM
NCI/ADR-RES ovarian
  GI50: 1420 nM
  TGI: 2820 nM
SR leukemia
  GI50: 371 nM
  TGI: 2150 nM
NCI-H23 lung
  GI50: 1510 nM
  TGI: 3340 nM
SK-MEL-5 melanoma
  GI50: 1780 nM
  TGI: 3200 nM
UACC-257 melanoma
  GI50: 1890 nM
  TGI: 3600 nM
HCT-15 colon
  GI50: 1050 nM
  TGI: 2700 nM
A549 NSCLC
  GI50: 1390 nM
  TGI: 2980 nM
SK-OV-3 ovarian
  GI50: 5050 nM
  TGI: 18400 nM
PC-3 prostate
  GI50: 2170 nM
  TGI: 5950 nM
MDA-MB-435
  GI50: 1500 nM
  TGI: 2930 nM
IGROV1 ovarian
  GI50: 905 nM
  TGI: 3200 nM
OVCAR-3 ovarian
  GI50: 1520 nM
  TGI: 4190 nM
NCI-H460 lung
  GI50: 836 nM
  TGI: 2240 nM
SW-620 colon
  GI50: 684 nM
  TGI: 2190 nM
SNB-19 CNS
  GI50: 1600 nM
  TGI: 4320 nM
HT29 colon
  GI50: 1010 nM
  TGI: 2270 nM
SNB-75 CNS
  GI50: 1230 nM
  TGI: 7780 nM
U251 CNS
  GI50: 1560 nM
  TGI: 3030 nM
OVCAR-5 ovarian
  GI50: 1500 nM
  TGI: 4020 nM
786-0 renal
  GI50: 1450 nM
  TGI: 2840 nM
RXF 393 renal
  GI50: 1390 nM
  TGI: 2800 nM
SF-295 CNS
  GI50: 1130 nM
  TGI: 2500 nM
EKVX NSCLC
  GI50: 1700 nM
  TGI: 4620 nM
HOP-92 NSCLC
  GI50: 2040 nM
  TGI: 8420 nM
HOP-62 NSCLC
  GI50: 1430 nM
  TGI: 3260 nM
T-47D breast
  GI50: 2160 nM
  TGI: 6390 nM
UACC-62 melanoma
  GI50: 2150 nM
  TGI: 4910 nM
SK-MEL-2 melanoma
  GI50: 1900 nM
  TGI: 3790 nM
MCF7 breast
  GI50: 1280 nM
  TGI: 2680 nM
A498 renal
  GI50: 2600 nM
  TGI: 10800 nM
DU-145 prostate
  GI50: 1840 nM
  TGI: 4260 nM
ACHN renal
  GI50: 698 nM
  TGI: 2450 nM
HL-60(TB) leukemia
  GI50: 2080 nM
  TGI: 4500 nM
M14 melanoma
  GI50: 1760 nM
  TGI: 3480 nM
TK-10 renal
  GI50: 1520 nM
  TGI: 4040 nM
UO-31 renal
  GI50: 1090 nM
  TGI: 2730 nM
HCC-2998 colon
  GI50: 1430 nM
  TGI: 2930 nM
COLO 205 colon
  GI50: 1230 nM
  TGI: 2740 nM
MDA-MB-231 breast
  GI50: 1500 nM
  TGI: 3530 nM
K-562 leukemia
  GI50: 1130 nM
  TGI: 2740 nM
